Experimental data reported in ChEMBL document CHEMBL1201862, “PubChem BioAssay data set” (2004).
Calls of active or inactive are those of the source. Cut-off read from the data, not from the text of the source, for most assays here: actives have a measured EC50 and inactives only a lower limit.

Tests used:
[1] = biological target: T1, Corticotropin-releasing factor receptor 2/Corticotropin-releasing factor-binding protein (Homo sapiens, UniProt P24387+Q13324); assay: Dose Response confirmation of uHTS hits for small molecule antagonists of the CRF-binding protein and CRF-R2 receptor complex.; type: functional; settings: read-out: IC50_Mean
T1 sequence (Q13324 whole entry): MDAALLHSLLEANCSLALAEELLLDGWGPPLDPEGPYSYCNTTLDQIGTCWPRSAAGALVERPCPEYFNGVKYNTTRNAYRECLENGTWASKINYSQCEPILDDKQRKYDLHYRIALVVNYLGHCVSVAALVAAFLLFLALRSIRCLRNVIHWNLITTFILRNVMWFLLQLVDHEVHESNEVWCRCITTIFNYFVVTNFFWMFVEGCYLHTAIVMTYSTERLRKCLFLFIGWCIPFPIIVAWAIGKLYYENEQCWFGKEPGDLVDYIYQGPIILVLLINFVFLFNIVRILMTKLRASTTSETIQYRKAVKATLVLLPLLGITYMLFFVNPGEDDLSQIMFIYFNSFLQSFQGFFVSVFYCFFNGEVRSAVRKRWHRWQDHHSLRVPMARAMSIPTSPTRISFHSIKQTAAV
T1 sequence (P24387 whole entry): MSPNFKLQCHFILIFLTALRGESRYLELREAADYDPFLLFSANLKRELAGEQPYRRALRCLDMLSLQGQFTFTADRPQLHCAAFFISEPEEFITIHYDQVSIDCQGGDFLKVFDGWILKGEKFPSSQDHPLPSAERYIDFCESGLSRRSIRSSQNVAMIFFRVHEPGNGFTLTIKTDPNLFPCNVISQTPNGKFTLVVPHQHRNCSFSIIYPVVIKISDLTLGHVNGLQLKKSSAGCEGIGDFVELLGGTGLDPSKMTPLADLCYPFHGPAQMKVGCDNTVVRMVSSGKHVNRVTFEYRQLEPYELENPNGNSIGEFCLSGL

[2] = biological target: T1, Corticotropin-releasing factor receptor 2/Corticotropin-releasing factor-binding protein; assay: activators of CRF receptor 2 with binding protein – uHTS hits, confirmation (AID 602473); type: functional; settings: read-out: EC50_Mean
[3] = biological target: T2, Heat shock factor protein 1 (Mus musculus, UniProt P38532); assay: inhibition of MG132-induced HSE-luciferase signal, confirmation, cell-based, NIH3T3, luminescence, dose retest (AID 2382); type: functional;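 note: NIH3T3 fibroblasts with HSF1-driven luciferase reporter stressed by proteasome inhibitor MG132; luminescence from HSF1-driven luciferase expression after 8 hours of MG132 stress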
T2 sequence (P38532 whole entry): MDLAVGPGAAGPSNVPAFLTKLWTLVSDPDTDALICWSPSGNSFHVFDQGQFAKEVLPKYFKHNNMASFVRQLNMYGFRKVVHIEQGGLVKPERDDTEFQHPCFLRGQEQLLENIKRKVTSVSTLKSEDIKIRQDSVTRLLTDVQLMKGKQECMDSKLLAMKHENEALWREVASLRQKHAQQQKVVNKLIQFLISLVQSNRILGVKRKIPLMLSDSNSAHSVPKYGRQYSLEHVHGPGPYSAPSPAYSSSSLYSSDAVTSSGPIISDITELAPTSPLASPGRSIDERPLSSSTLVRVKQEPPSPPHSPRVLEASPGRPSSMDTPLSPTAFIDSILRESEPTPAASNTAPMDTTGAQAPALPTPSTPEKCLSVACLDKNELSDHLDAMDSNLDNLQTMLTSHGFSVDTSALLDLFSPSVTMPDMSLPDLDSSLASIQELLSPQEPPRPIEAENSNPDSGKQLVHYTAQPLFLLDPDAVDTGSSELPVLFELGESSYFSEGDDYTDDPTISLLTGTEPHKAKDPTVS

[4] = biological target: T3, Streptokinase A (Streptococcus pyogenes serotype M1, UniProt P10520); assay: S. pyogenes streptokinase expression inhibitors, potency, dose response, plasminogen activation absorbance, OD405 (AID 1914); type: functional, Streptococcus pyogenes M1 GAS;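 note: secreted streptokinase activity via plasminogen activation per viability signal from cell pellet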
T3 sequence (P10520 whole entry): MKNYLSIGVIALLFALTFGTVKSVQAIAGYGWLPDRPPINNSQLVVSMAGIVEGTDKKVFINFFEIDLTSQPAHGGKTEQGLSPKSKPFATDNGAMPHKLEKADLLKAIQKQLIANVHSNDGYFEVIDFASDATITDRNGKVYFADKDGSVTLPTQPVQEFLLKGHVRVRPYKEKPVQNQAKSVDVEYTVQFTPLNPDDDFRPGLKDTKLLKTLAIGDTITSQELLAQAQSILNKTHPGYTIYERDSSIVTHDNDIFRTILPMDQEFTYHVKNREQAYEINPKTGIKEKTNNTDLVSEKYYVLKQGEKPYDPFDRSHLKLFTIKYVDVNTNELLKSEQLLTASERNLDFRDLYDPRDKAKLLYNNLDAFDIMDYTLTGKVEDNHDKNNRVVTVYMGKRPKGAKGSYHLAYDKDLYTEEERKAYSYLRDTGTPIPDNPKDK

[5] = NIH-3T3 fibroblast cytotoxicity, dose response, cytotoxicity control, cell-based, fluorescence, Alamar Blue, secondary assay (AID 2327); type: functional;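 note: NIH-3T3 mouse fibroblasts cultured with fluconazole at 8 µg/mL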
[6] = system: Streptococcus; assay: Group A Streptococcus viability loss, dose response, counter-screen for streptokinase expression inhibitor project, luminescence, BacTiterGlo (AID 1915); type: functional, organism-based;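 note: potency for reduction of bacterial viability or growth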
[7] = C. albicans growth with fluconazole, confirmation, fluorescence, retest (AID 2467); type: functional, cell-based
[8] = system: Streptococcus sp. 'group A'; assay: growth inhibition of control SK(-) GAS strain, dose response, counter-screen for streptokinase expression inhibitor project, luminescence, kanamycin, BacTiterGlo, confirmation (AID 1900); type: functional, organism-based
[9] = inhibitors of intracellular T. cruzi replication, confirmation, NIH3T3 host cells, beta-gal luminescence (AID 2044); type: functional, cell-based;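 note: intracellular parasites grown in NIH/3T3 mouse fibroblasts as host cells; luminescent beta-galactosidase reporter signal from transgenic T. cruzi replicating inside host cells; inhibitors lower the luminescence signal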
[10] = cytotoxicity toward NIH3T3 fibroblasts, dose response, counter-screen, cell-based, ATP luminescence, mouse fibroblasts (AID 2010); type: functional;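 note: cells exposed to compound for about 90 hours before reading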
[11] = Luminescence Cell-Based Dose Response HTS to Identify Inhibitors of 5'UTR Stem-Loop Driven Prion Protein mRNA Translation in H4 Neuroglioblastoma Cells. [Related pubchem assays: 1827 (Project Summary), 1813 (Primary HTS)]; type: functional
[12] = inhibitors of firefly luciferase expression or activity, dose response, H4 neuroglioma cells, luminescence (AID 1990); type: functional, cell-based
[13] = inhibitors of SNCA 5'UTR-driven reporter translation, confirmation, H4 neuroglioma cells, luminescence (AID 1988); type: functional, cell-based
[14] = biological target: Glyceraldehyde-3-phosphate dehydrogenase (Homo sapiens, UniProt P04406)
[15] = system: H4; assay: Luminescence Cell-Based Dose Response HTS to Identify Activators of 5'UTR Stem-Loop Driven Prion Protein mRNA Translation in H4 Neuroglioblastoma Cells. [Related pubchem assays: 1829 (Project Summary), 1814 (Primary HTS)]; type: functional; settings: Homo sapiens
[16] = Luminescence Cell-Based Dose Response HTS to Identify Activators of Luciferase Translation or Activity in H4 […] Cells. [Related pubchem assays: 1829 (Project Summary), 1814 (Primary HTS)]; type: functional
[17] = biological target: Paired box protein Pax-8 (Homo sapiens, UniProt Q06710); assay: inhibitors of PAX8-driven TPO luciferase reporter, dose response, RMG-I cells, cherry-pick (AID 687027); type: functional, cell-based;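 note: luciferase reporter driven by Pax8 target thyroperoxidase promoter measured by SteadyGlo luminescence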
[18] = system: SN12K1; assay: cells; type: functional; settings: Homo sapiens
[19] = system: P388/ADR; assay: cells; type: functional; settings: Mus musculus
[20] = P. falciparum Dd2 growth inhibitors, dose response, SYBR Green, cherry-picked samples (AID 1159567); type: functional, cell-based

Sequence of Paired box protein Pax-8 (Q06710 whole entry): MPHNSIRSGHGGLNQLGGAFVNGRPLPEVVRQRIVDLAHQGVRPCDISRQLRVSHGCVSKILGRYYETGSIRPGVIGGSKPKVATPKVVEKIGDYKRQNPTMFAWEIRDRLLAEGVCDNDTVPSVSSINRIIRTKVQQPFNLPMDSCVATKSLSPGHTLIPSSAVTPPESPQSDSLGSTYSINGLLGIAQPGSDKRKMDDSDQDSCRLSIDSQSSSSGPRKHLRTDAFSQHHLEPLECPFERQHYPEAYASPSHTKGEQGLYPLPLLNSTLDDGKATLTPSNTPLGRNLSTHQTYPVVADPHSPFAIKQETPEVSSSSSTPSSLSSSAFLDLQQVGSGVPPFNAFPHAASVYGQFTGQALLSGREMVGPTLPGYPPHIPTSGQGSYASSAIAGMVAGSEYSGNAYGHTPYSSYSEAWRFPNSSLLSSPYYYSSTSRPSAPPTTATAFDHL
Sequence of Glyceraldehyde-3-phosphate dehydrogenase (P04406 whole entry): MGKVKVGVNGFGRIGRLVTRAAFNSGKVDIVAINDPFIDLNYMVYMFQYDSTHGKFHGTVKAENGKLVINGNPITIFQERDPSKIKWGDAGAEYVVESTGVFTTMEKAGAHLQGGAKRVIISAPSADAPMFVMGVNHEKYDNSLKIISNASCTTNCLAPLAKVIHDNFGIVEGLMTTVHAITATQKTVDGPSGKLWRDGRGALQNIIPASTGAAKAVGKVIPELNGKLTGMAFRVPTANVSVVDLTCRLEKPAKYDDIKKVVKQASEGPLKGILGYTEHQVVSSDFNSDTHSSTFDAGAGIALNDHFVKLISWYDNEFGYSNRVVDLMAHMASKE

COc1cc(-c2ccc3cc(OC)c(OC)c(OC)c3c2)cc(OC)c1OC
IC50 [1]: > 47.1 µM (inactive)
EC50 [2]: > 53 µM (inactive)

CC(=O)C1=C(O)C(=O)N(Cc2cccnc2)C1c1ccc(O)cc1 (configuration not stated)
EC50 [3]: > 195 µM (not active)

N#Cc1ccc(CSC2=NCCN2)cc1
IC50 [1]: > 47.1 µM (inactive)
EC50 [2]: > 53 µM (inactive)

CCOC(=O)C1CCN(C(=O)c2ccc3c(=O)n4nc(Nc5cc(C)ccc5C)sc4nc3c2)CC1
EC50 [4]: > 150 µM (not active)
EC50 [5]: > 150 µM (inactive)
EC50 [6]: 37.4 µM (active)
EC50 [7]: 2.55 µM (active)
EC50 [8]: 9.44 µM (active)

C=CCOc1ccn(C)c(=O)n1
EC50 [3]: > 195 µM (not active)

O=C(Cc1ccsc1)Nc1ccc(S(=O)(=O)C(F)F)cc1
EC50 [3]: > 195 µM (not active)

CCC(=O)Nc1ccc(NC(=O)c2oc3ccccc3c2C)cc1
IC50 [1]: > 47.1 µM (inactive)
EC50 [2]: > 53 µM (inactive)

Cc1cc(C(=O)CN2CCC(C)CC2)c(C)n1-c1ccccc1F
EC50 [9]: 1.18 µM (active)
EC50 [10]: > 60 µM (not active)
EC50 [3]: < 0.16 µM (active)

Cc1cccc2c1Sc1ccc(Cl)cc1CC2N1CCNCC1 (configuration not stated)
EC50 [9]: 3.13 µM (active)
EC50 [11]: 116 µM (active)
EC50 [10]: 12.9 µM (active)
EC50 [12]: > 120 µM (not active)
EC50 [13]: 11.7 µM (active)

CC(C)C(=O)Nc1cccc(C(=O)Nc2ccccc2C(=O)O)c1
EC50 [11]: > 120 µM (not active)
EC50 [12]: 47.8 µM (active)
EC50 [13]: > 120 µM (not active)

O=C(NCc1csc(-c2cccs2)n1)c1ccccc1
IC50 [1]: > 47.1 µM (inactive)
EC50 [2]: > 53 µM (inactive)

COc1cccc(N2C(=O)C(Cl)=C(N3CCN[C@H](C)C3)C2=O)c1
IC50 [14]: > 50 µM (inconclusive)

C#CCSc1nc(C)cc(C(=O)OCC)c1C#N
IC50 [1]: > 47.1 µM (inactive)
EC50 [2]: > 53 µM (inactive)

CCOc1ccc(CNC(=O)c2ccc3nc(N4CCOCC4)sc3c2)cc1
EC50 [3]: > 195 µM (not active)

CN1CCc2c(sc3c2C(=O)NC(c2ccc(-c4ccc(Cl)cc4)o2)N3)C1 (configuration not stated)
EC50 [3]: > 195 µM (not active)

O=c1cccc2n1Cc1cc3ccccc3nc1-2
EC50 [15]: 37.6 µM (active)
EC50 [16]: 38.3 µM (active)

Cc1cc(=O)oc2cc(OCC(=O)Nc3ccc(O)c(C(=O)O)c3)ccc12
IC50 [14]: > 100 µM (not active)

CC(=O)N1N=C(c2cccc([N+](=O)[O-])c2)CC1c1ccc(Br)cc1 (configuration not stated)
IC50 [14]: > 100 µM (not active)

Cc1cc2c(cc(C(=O)OCC(=O)NCc3ccco3)n2C)s1
EC50 [5]: 22.4 µM (active)
EC50 [7]: > 38 µM (not active)

COc1cccc(C2Nc3ccccc3C(=O)N2Cc2ccccc2)c1 (configuration not stated)
EC50 [11]: > 120 µM (not active)
EC50 [12]: > 120 µM (not active)
EC50 [13]: > 120 µM (not active)

COCCNC(=O)C(OC(=O)c1cccs1)c1ccccc1 (configuration not stated)
EC50 [3]: > 195 µM (not active)

CN(c1ccccc1)c1ncccn1
EC50 [3]: > 195 µM (not active)

COc1ccc(-n2nc(C)cc2N)cc1
EC50 [3]: > 195 µM (not active)

O=C(NCc1ccccn1)c1ccc(Cn2c(=S)[nH]c3ccc(Br)cc3c2=O)cc1
EC50 [11]: > 120 µM (not active)
EC50 [12]: > 120 µM (not active)
EC50 [13]: > 120 µM (not active)

Cc1nc(NC(=O)C2CC2)sc1C(=O)Nc1ccccc1Cl
EC50 [15]: 9.56 µM (active)
EC50 [16]: 11.6 µM (active)

CCc1cc[n+](CC(=O)Nc2ccc(Cl)cc2Cl)cc1
EC50 [3]: > 195 µM (not active)

CNC(=S)N(CCc1c(C)[nH]c2ccc(C)cc12)Cc1cc(OC)c(OC)c(OC)c1
EC50 [3]: > 195 µM (not active)

COc1cccc(N2CCN(C3=C(Cl)C(=O)N(c4ccnc(Cl)c4)C3=O)CC2)c1
IC50 [14]: > 50 µM (inconclusive)

O=C(Nc1cc2nn(-c3ccccc3)nc2cc1Cl)c1ccc([N+](=O)[O-])o1
IC50 [14]: > 100 µM (not active)

COc1ccc(F)cc1-c1cc(NC=O)c2ncc(-c3cc(OC)c(OC)c(OC)c3)n2c1
AC50 [17]: 3.49 µM (active)

O=C(NCCCl)O/N=C/c1cccnc1
GI50 [18]: > 100 µM (inactive)
GI50 [19]: 52.5 µM (inactive)

COc1cc(C(=O)NCC(c2cccs2)N2CCOCC2)ccc1OCc1ccc(Cl)cc1 (configuration not stated)
AC50 [17]: 22 µM (active)

Cc1ccc(S(=O)(=O)Nc2ccc3c(c2)C(=O)N([C@H](C)CO)C[C@H](C)[C@H](CN(C)C(=O)c2ccccc2)OCCCC[C@H](C)O3)cc1
AC50 [17]: 19.4 µM (active)

COc1ccc(S(=O)(=O)Nc2ccc3c(c2)C(=O)N([C@@H](C)CO)C[C@H](C)[C@H](CN(C)Cc2ccc(C(F)(F)F)cc2)OCCCC[C@@H](C)O3)cc1
AC50 [17]: 7.68 µM (active)

Cc1nnc(N/N=C/c2cc(C)n(-c3ccc(F)cc3)c2C)n1N
EC50 [3]: 29.7 µM (active)

CO[C@@H]1CN(C)C(=O)c2cc(NC(=O)Nc3ccc(C(F)(F)F)cc3)ccc2OC[C@@H](C)NC[C@@H]1C
AC50 [20]: 5.92 µM (active)

O=C(c1cnccn1)N1CC(=O)N2[C@@H](CO)[C@H](c3ccc(C#CCc4ccccc4)cc3)[C@@H]2C1
AC50 [20]: 5.99 µM (active)

O=S(=O)(Cc1ccccc1)N1[C@H](CO)[C@@H](c2ccccc2)C12CN(CCC(F)(F)F)C2
AC50 [20]: 5.09 µM (active)

C[C@H]1CN([C@@H](C)CO)C(=O)c2ccccc2-c2ccccc2CO[C@H]1CN(C)Cc1ccc(Oc2ccccc2)cc1
AC50 [20]: 4.26 µM (active)

C[C@H](CO)N1C[C@H](C)[C@H](CN(C)C(=O)Nc2ccc(N3CCCCC3)cc2)OCc2cnnn2CCCC1=O
AC50 [20]: > 39 µM (inactive)

CN(C)CC(=O)N1[C@H](CO)[C@H](c2ccc(C#CC3CCCCC3)cc2)[C@@H]1C#N
AC50 [20]: 8.31 µM (active)

N#C[C@@H]1[C@@H](c2ccccc2-c2ccccc2F)[C@@H](CO)N1C(=O)C1CCOCC1
AC50 [20]: 24.2 µM (active)
